Results on one compound are retold here after patent US7807445B2, “Antibiotic compound” (Merck Sharp and Dohme de Espana, S.A., priority 2004, dated 2010).

In brackets after ≈: the same amount, converted by molar mass.

Assay [1] is described as follows: Microbroth dilution assay (MIC), antibacterial activity. Type of assay: cell-based. The settings on record: range over all test strains (S. aureus, S. pneumoniae, E. faecalis, E. faecium, B. subtilis, E. coli and resistant strains); 35° C., read to no growth after 22-24 hours; NCCLS guidelines; read-out: minimum inhibitory concentration (MIC). On the procedure: (§1) The protocols used to determine the antibacterial activity of Compound I are described below.
(§2) • Cation-Adjusted Mueller Hinton Broth (MH; BBL) • 50% Lysed Horse Blood (LHB; BBL) (stored frozen) • RPMI 1640 (BioWhittaker) • Human Serum (Pel-Freez) • RPMI 1640 (BioWhittaker) • Haemophilus Test Medium (HTM, Remel) • Trypticase Soy Broth (TSB, 5 mL/tube; BBL) • 0.9% Sodium Chloride (Saline; Baxter) • Trypticase Soy+5% Sheep Blood Agar Plates (TSA; BBL) • Sabouraud Dextrose Agar Plates (BBL) • Chocolate Agar Plates (BBL) • 2× Skim Milk (Remel) • Microbank Beads (Kramer Scientific) • MIC 2000 Microtiter plate inoculator. • 2× Trypticase Soy Broth (TSB, BBL)+15% glycerol/50% horse serum. • 96-Well Microtiter plates, lids, inoculum trays (Dynex Laboratories) • 8-Channel Finn Multichannel pipettor, 0.5-10 μL volume Methods: Media Preparation
(§3) Cation-Adjusted Mueller Hinton Broth (BBL): Prepared according to manufacturer's instructions (22 gms dissolved in 1000 mL water; autoclaved 22 minutes). Stored refrigerated. Filter-sterilized before use using a Corning 0.45 Tm cellulose acetate filter.
(§4) Cation-Adjusted Mueller Hinton+2.5% Lysed Horse Blood: Aseptically add 5 mL 50% lysed horse blood to 100 mL Cation-Adjusted Mueller Hinton Broth. Filter-sterilize before use using a Corning 0.45 Tm cellulose acetate filter. […]
In general terms: Dilution methods test growth across graded concentrations, often in twofold steps.

Assay [2] relates to various strains of S. aureus, S. pneumoniae, E. faecalis, E. faecium, B. subtilis and E. coli, including MRSA, VRE, multidrug-resistant E. faecium …. The assay is described as above. The settings on record: various strains of S. aureus, S. pneumoniae, E. faecalis, E. faecium, B. subtilis and E. coli, including MRSA, VRE, multidrug-, macrolide- and linezolid-resistant species. Type of assay: cell-based. On the procedure:
as §1, §2, §3, §4

As for `C=C1C[C@@]23C=CC(=O)[C@@](C)(CCC(=O)Nc4c(O)ccc(C(=O)O)c4O)C2C[C@@H]1CC3` (stereo in doubt) [Compound I], the MIC in assay [1] was 0.5 to 32 µg/mL (≈ 1.18 to 75.2 µM). Besides, the antibacterial activity result in assay [2] is “demonstrates antibacterial activity”.
